Results published in patent US8299021B2, “Macrocyclic inhibitors of hepatitis C virus replication” (InterMune, Inc., priority 2005, dated 2012).
pEC50, pIC50: −log10 of the molar value. Read-outs that look alike come from different tables or passages of the source.

Legend:
[1] = molecular target: T1, NS3-NS4 protease (full-length NS3/NS4A-2) (Hepatitis C virus genotype 1a, UniProt P27958); assay: NS3-NS4 protease assay / NS3 inhibition assay (RETS1 substrate, fluorescence kinetic read); format: biochemical; conditions: read-out: NS3-NS4 IC50
T1 construct: Recombinant E. coli or Baculovirus full-length NS3 was diluted to 3.33 μM with assay buffer; made in house; host or cells: E. coli or baculovirus (insect cells)
T1 sequence (P27958 1027-1657): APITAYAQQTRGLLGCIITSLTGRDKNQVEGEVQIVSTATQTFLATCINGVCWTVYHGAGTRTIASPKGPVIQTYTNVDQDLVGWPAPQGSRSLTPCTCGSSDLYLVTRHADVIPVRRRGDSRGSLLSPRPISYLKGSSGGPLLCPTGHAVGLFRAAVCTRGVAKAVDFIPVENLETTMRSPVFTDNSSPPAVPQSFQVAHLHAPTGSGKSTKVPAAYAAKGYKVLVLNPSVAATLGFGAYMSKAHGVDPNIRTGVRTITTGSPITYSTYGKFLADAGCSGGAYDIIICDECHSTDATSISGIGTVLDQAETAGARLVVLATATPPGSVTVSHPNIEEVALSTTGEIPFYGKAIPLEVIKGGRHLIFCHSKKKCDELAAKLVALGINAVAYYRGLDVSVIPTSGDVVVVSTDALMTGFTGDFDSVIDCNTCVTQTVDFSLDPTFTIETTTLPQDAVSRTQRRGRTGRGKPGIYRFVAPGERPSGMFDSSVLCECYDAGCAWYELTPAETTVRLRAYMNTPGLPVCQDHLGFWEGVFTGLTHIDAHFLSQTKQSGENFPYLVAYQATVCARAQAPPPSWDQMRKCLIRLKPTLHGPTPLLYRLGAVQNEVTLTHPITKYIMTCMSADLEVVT
Procedure: NS3 complex formation with NS4A-2.
The appropriate amount of NS4A-2 to 8.3 mM in assay buffer was added to equal the volume of NS3 in step 2.1.1 (conversion factor—3.8 mg/272 μL assay buffer). The material was transferred to an eppendorf tube and place in water bath in 4° C. refrigerator.
After equilibration to 4° C., equal volumes of NS3 and NS4A-2 solutions were combined in an eppendorf tube, mix gently with a manual pipettor, and incubate mixture for 15 minutes in the 4° C. water bath.
After 15 minutes at 4° C., the NS3/NS4A-2 eppendorf tube was removed and place it in a room temperature water bath for 10 minutes. NS3/NS4A-2 was alliquoted at appropriate volumes and store at −80° C. (E. coli NS3 run at 2 nM in assay, aliquot at 25 μL. BV NS3 run at 3 nM in assay, aliquot at 30 μL).
Sample compounds were dissolved to 10 mM in DMSO then diluted to 2.5 mM (1:4) in DMSO.
The E. coli. […] Using the manual multichannel pipettor, careful not to introduce bubbles into the plate, add 50 μL assay buffer to wells A01-H01 of a black Costar 96-well polypropylene storage plate.
Using the manual multichannel pipettor, careful not to introduce bubbles into the plate, add 50 μL of diluted NS3/NS4A-2 from step 2.2.6 to wells A02-H12 of plate in step 2.2.7. Using the manual multichannel pipettor, careful not to introduce bubbles into the plate, transfer 25 μL of the wells in drug dilution plate in step 2.2.5 to corresponding wells in assay plate in step 2.2.8. Change tips on multichannel pipettor for each row of compounds transferred. Using the manual multichannel pipettor, careful not to introduce bubbles into the plate, mix the wells from the assay plate in step 2.2.9 by aspirating and dispensing 35 μL of the 75 μL in each well five times. Change tips on multichannel pipettor for each row of wells mixed. Cover plate with a polystyrene plate lid and pre-incubate the plate from step 2.2.10 containing NS3 protease and sample compounds 10 minutes at room temperature. While plate from step 2.2.11 is pre-incubating, dilute RETS1 substrate in a 15 mL polypropylene centrifuge tube.
After the plate in step is done pre-incubating, and using the manual multichannel, add 25 μL of substrate to all wells on the plate. Quickly mix the plate as in step 2.2.10, mixing 65 μL of the 100 μL in the wells.
Read the plate in kinetic mode on the Molecular Devices SpectraMax
IC50s are determined using a four parameter curve fit equation, and converted to Ki's using the following Km's:
where Ki=IC50/(1+[S]/Km))

[2] = tested on: HCV sub-genomic replicon GS4.3 (HuH-7 hepatoma cells); assay: Quantitation by ELISA of neomycin phosphotransferase II (NPTII) in the HCV sub-genomic replicon, GS4.3; format: cell-based
Excerpt: Quantitation by ELISA of the Selectable Marker Protein, Neomycin Phosphotransferase II (NPTII) in the HCV Sub-Genomic Replicon, GS4.3
The HCV sub-genomic replicon (1377/NS3-3′, accession No. AJ242652), stably maintained in HuH-7 hepatoma cells, was created by Lohmann et al. Science 285: 110-113 (1999). The replicon-containing cell culture, designated GS4.3, was obtained from Dr. Christoph Seeger of the Institute for Cancer Research, Fox Chase Cancer Center, Philadelphia, Pa.
GS4.3 cells were maintained at 37° C., 5% CO2, in DMEM (Gibco 11965-092) supplemented with L-glutamine 200 mM (100×) (Gibco25030-081), non-essential amino acids (NEAA)(Biowhittaker 13-114E), heat-inactivated (HI) Fetal Bovine Serum(FBS)(Hyclone SH3007.03) and […] geneticin (G418)(Gibco 10131-035). Cells were sub-divided 1:3 or 4 every 2-3 days.
24 h prior to the assay, GS4.3 cells were collected, counted, and plated in 96-well plates (Costar 3585) at 7500 cells/well in 100 μl standard maintenance medium (above) and incubated in the conditions above. To initiate the assay, culture medium was removed, cells were washed once with PBS (Gibco 10010-023) and 90 μl Assay Medium (DMEM, L-glutamine, NEAA, 10% HI FBS, no G418) was added. Inhibitors were made as a 10× stock in Assay Medium, (3-fold dilutions from 10 μM to […] final concentration, final DMSO concentration 1%), 10 μl were added to duplicate wells, plates were rocked to mix, and incubated as above for 72 h.
An NPTII Elisa kit was obtained from AGDIA, Inc. (Compound direct ELISA test system for Neomycin Phosphotransferase II, PSP 73000/4800). Manufacturer's instructions were followed, with some modifications. 10×PEB-1 lysis buffer was made up to include 500 μM PMSF (Sigma P7626, 50 mM stock in isopropanol). After 72 h incubation, cells were washed once with PBS and 150 μlPEB-1 with PMSF was added per well. Plates were agitated vigorously for 15 minutes, room temperature, then frozen at −70° C. Plates were thawed, lysates were mixed thoroughly, and 100 μl were applied to an NPTII Elisa plate. A standard curve was made. Lysate from DMSO-treated control cells was pooled, serially diluted with PEB-1 with PMSF, and applied to duplicate wells of the ELISA plate, in a range of initial lysate amount of 150 ul-2.5 ul. In addition, 100 μl buffer alone was applied in duplicate as a blank. Plates were sealed and gently agitated at room temperature for 2 h. Following capture incubation, the plates were washed 5×300 μlwith PBS-T (0.5% Tween-20, PBS-T was supplied in the ELISA kit). For detection, a 1× dilution of enzyme conjugate diluent MRS-2 (5×) was made in PBS-T, into which 1:100 dilutions of enzyme conjugates A and B were added, as per instructions. Plates were resealed, and incubated with agitation, covered, room temperature, for 2 h. The washing was then repeated and 100 μlof room temperature TMB substrate was added. After approximately 30 minutes incubation (room temperature, agitation, covered), the reaction was stopped with 50 μl 3M sulfuric acid. Plates were read at 450 nm on a Molecular Devices Versamax plate reader.
Inhibitor effect was expressed as a percentage of DMSO-treated control signal, and inhibition curves were calculated using a 4-parameter equation: y=A+4B-A)/(1+((C/x)^13))), where C is half-maximal activity or EC50.

[3] = Hepatitis C virus, Huh-7, Table 26, read-out: EC50
[4] = Hepatitis C virus, Huh-7, GS4.3 cells, 72 h, read-out: Replicon EC50
[5] = Hepatitis C virus, Huh-7, 72 h, read-out: Replicon EC50
[6] = GS4.3 cells, 72 h, read-out: Replicon EC50

Structure (SMILES)	pIC50 [1]	pEC50 [2, 4]	also measured
O=C(CCC(F)(F)F)N[C@H]1CCCCC/C=C\[C@@H]2C[C@@]2(C(=O)NS(=O)(=O)C2CC2)NC(=O)[C@@H]2CCCN2C1=O [Compound 2139]	< 5.00		pEC50 [2, 3]: > 6.00
CC(C)(C)OC(=O)N[C@H]1CCCCC/C=C\[C@@H]2C[C@@]2(C(=O)NS(=O)(=O)C2(C)CC2)NC(=O)[C@@H]2C[C@@H](OC(=O)N3Cc4ccccc4C3)CN2C1=O [Compound 100, (1S,4R,6S,14S,18R)-1,3-Dihydro-isoindole-2-carboxylic acid 14-tert-butoxycarbonylamino-4-(1-methylcyclopropane-1-sulfonyl)aminocarbonyl-2,15-dioxo-3,16-diaza-tricyclo[14.3.0.0^4,6]nonadec-7-en-18-yl Ester]	> 7.00	> 7.00	
O=C1N[C@]2(C(=O)NS(=O)(=O)C3CC3)C[C@H]2/C=C\CCCCC[C@H](NC(=O)C2(C(F)(F)F)CC2)C(=O)N2C[C@H](OC(=O)N3Cc4cccc(Cl)c4C3)C[C@@H]12 [Compound 265]	> 7.00	> 7.00	
CC(C)(C)OC(=O)N[C@H]1CCCCC/C=C\[C@@H]2C[C@@]2(C(=O)NS(=O)(=O)C2CC2)NC(=O)C2C[C@@H](OC(=O)NCc3ccc(F)cn3)CN2C1=O (some centres unmarked) [Compound 152]	> 7.00	< 5.00	
CC(C)(C)OC(=O)N[C@H]1CCCCC/C=C\[C@@H]2C[C@@]2(C(=O)NS(=O)(=O)C2CC2)NC(=O)[C@@H]2CCCN2C1=O [Compound 2137, 1S,4R,6S,14S)tert-but 14-Cyclopropanesulfonylaminocarbonyl-2,15-dioxo-3,16-diaza-tricyclo[14.3.0.0^4,6]nonadec-7-ene-14-yl carbamate]	< 5.00		pEC50 [2, 3]: < 5.00
CC(C)(C)OC(=O)N[C@H]1CCCCC/C=C\[C@@H]2C[C@@]2(C(=O)NC(=O)c2ccccc2)NC(=O)[C@@H]2C[C@@H](OC(=O)N3Cc4ccccc4C3)CC2C1=O (some centres unmarked) [Compound 705]	> 7.00	> 7.00	
CC(C)S(=O)(=O)NC(=O)[C@@]12C[C@H]1/C=C\CCCCC[C@H](NC(=O)OC1CCCC1)C(=O)N1C[C@H](OC(=O)N3CCc4ccccc4C3)C[C@H]1C(=O)N2 [Compound 118]			pEC50 [2, 5]: > 7.00
C[C@@H](NC(=O)O[C@@H]1C[C@H]2C(=O)N[C@]3(C(=O)NS(=O)(=O)C4CC4)C[C@H]3/C=C\CCCCC[C@H](NC(=O)OC(C)(C)C)C(=O)N2C1)c1ccc(F)cn1 [Compound 150]	> 7.00		pEC50 [2, 6]: < 5.00
CC(C)(C)OC(=O)N[C@H]1CCCOC/C=C\[C@@H]2C[C@@]2(C(=O)NS(=O)(=O)C2CC2)NC(=O)[C@@H]2C[C@@H](OC(=O)N3Cc4cccc(F)c4C3)CN2C1=O [Compound 1021, (2R,6S,13aS,14aR,16aS,Z)-6-(tert-butoxycarbonylamino)-14a-(cyclopropylsulfonylcarbamoyl)-5,16-dioxo-2,3,5,6,7,8,9,11,13a,14,14a,15,16,16a-tetradecahydro-1H-cyclopropa(e)pyrrolo[2,1-i][1,7,10]oxadiazacyclopentadecin-2-yl 4-fluoroisoindoline-2-carboxylate]	> 5.00		pEC50 [2, 6]: < 5.00
CC(C)(C)OC(=O)N[C@H]1CCC(F)(F)CCCC[C@@H]2C[C@@]2(C(=O)NS(=O)(=O)C2CC2)NC(=O)[C@@H]2C[C@@H](OC(=O)N3Cc4cccc(F)c4C3)CN2C1=O [Compound 1010, (2R,6S,13aS,14aR,16aS,Z)-6-(tert-butoxycarbonylamino)-14a-(cyclopropylsulfonylcarbamoyl)-9,9-difluoro-5,16-dioxooctadecahydrocyclopropa (e) prrolo[1,2-a][1,4]diazacyclopentadecine 2-yl 4-fluoroisoindoline-2-carboxylate]	> 7.00	> 7.00	
COc1cccc(S(=O)(=O)NC(=O)[C@@]23C[C@H]2/C=C\CCCCC[C@H](NC(=O)OC2CCCC2)C(=O)N2C[C@H](OC(=O)N4CCc5ccccc5C4)C[C@H]2C(=O)N3)c1 [Compound 188]			pEC50 [2, 5]: > 7.00
N[C@H]1CCCCC/C=C\[C@@H]2C[C@@]2(C(=O)NS(=O)(=O)Nc2ccc(Cl)cc2)NC(=O)[C@@H]2C[C@@H](OC(=O)N3Cc4ccccc4C3)CN2C1=O [Compound 203]			pEC50 [2, 5]: < 5.00
O=C1N[C@]2(C(=O)NS(=O)(=O)C3CC3)C[C@H]2/C=C\CCCCC[C@H](Nc2c(N3C4CCC3CC4)c(=O)c2=O)C(=O)N2C[C@H](OC(=O)N3Cc4cccc(F)c4C3)C[C@@H]12 [Compound 199]			pEC50 [2, 5]: > 5.00
CC(C)(C)OC(=O)NC1CCCCC/C=C\[C@H]2C[C@@]2(C(=O)NS(=O)(=O)NCC(F)(F)F)NC(=O)C2CC(OC(=O)N3Cc4cccc(Cl)c4C3)CN2C1=O (single isomer, unassigned) [Compound 226]	> 7.00	> 7.00	
CNc1c(NC(=O)C23C[C@H]2/C=C\CCCCC[C@H](NC(=O)OC(C)(C)C)C(=O)N2C[C@H](OC(=O)N4Cc5cccc(F)c5C4)C[C@H]2C(=O)N3)c(=O)c1=O (some centres unmarked) [Compound 646]		< 5.00	
CC(C)(C)OC(=O)N[C@H]1CCCCC/C=C\[C@@H]2C[C@@]2(C(=O)O)NC(=O)C2C[C@@H](OC(=O)N3Cc4cccc(Cl)c4C3)CN2C1=O (some centres unmarked) [Compound 177]	> 7.00	> 5.00	
COc1ccc(S(=O)(=O)NC(=O)[C@@]23C[C@H]2/C=C\CCCCC[C@H](NC(=O)OC2CCCC2)C(=O)N2C[C@H](OC(=O)N4CCc5ccccc5C4)C[C@H]2C(=O)N3)cc1 [Compound 120]			pEC50 [2, 5]: > 7.00
N[C@H]1CCCCC/C=C\[C@@H]2C[C@@]2(C(=O)NS(=O)(=O)C2CC2)NC(=O)C2C[C@@H](OC(=O)N3Cc4c(Cl)ccc(Cl)c4C3)CN2C1=O (some centres unmarked) [Compound 156]		> 6.00	
